Here are results for 60 molecules from patent US6750244B2, “Compounds active at a novel site on receptor-operated calcium channels useful for treatment of neurological disorders and diseases” (NPS Pharmaceuticals, Inc., priority 1993, dated 2004).

SMILES strings stand for the structures. Several values for one entry are separate records, joined by “and”; a condition that tells them apart may be missing. Equal entries are not always repeated. Structures can show the parent of a compound that is named as a salt. Where two headings read alike, the source gives them in different places.

The subject of experiment [1] is NMDA receptor-ionophore complex (site labeled by [3H]MK-801). Kind of experiment: Inhibition of [3H]MK-801 binding in rat cortical/hippocampal washed membrane preparations. To be noted: for IC50: read-out: IC50 (μM) vs. [3H]MK-801.
Experiment [2] concerns NMDA receptor. Description: Inhibition of NMDA/glycine-induced increases in intracellular calcium in cultured rat cerebellar granule cells (RCGC). Type of experiment: cell-based.
[3] abbreviates: rat cortical/hippocampal washed membranes.
The mark [4] stands for this setting: NMDA/glycine-induced increases in intracellular calcium, cultured rat cerebellar granule cells; read-out: IC50 (μM) vs. NMDA.

As for `NCCC1c2cccc(F)c2CCc2c(F)cccc21` [Compound 193], the “activity vs. [3H]MK-801 binding” value in experiment [1] (@ 1 μM) was “inactive @ 1 μM”.

By IC50 is commonly meant the concentration that inhibits the measured activity by half. Take `CCNC[C@H](C)C(c1cccc(F)c1)c1cccc(F)c1` [Compound 39]: the IC50 in experiment [1] (setting [3]) was determined as 2.9 µM; in experiment [2] (setting [4]), 0.251 µM. `NCCC1c2ccccc2CCc2ccc(F)cc21` (stereo not drawn) [Compound 197, 3-Fluoro-10,11-dihydro-5-(2-aminoethyl)-5H-dibenzo[a,d]cycloheptene hydrochloride]: the IC50 in experiment [1] (setting [3]) came to 0.053 µM. With `CN(C)CCCN1c2ccccc2Sc2ccc(Cl)cc21` [Chlorpromazine, reference compound], the IC50 in experiment [1] (setting [3]) amounted to 11.2 µM. `Cc1c(F)cccc1C(CCN)c1cccc(F)c1` (stereo not drawn) [Compound 56, 3-(3-fluorophenyl)-3-(2-methyl-3-fluorophenyl)-1-propylamine]: the IC50 in experiment [1] (setting [3]) came to 0.955 µM; in experiment [2] (setting [4]), 0.218 µM. On to `NCC(c1ccc(F)cc1)c1ccc(F)cc1` [Compound 99], for which the figures for the IC50 in experiment [1] (setting [3]) and in experiment [2] (setting [4]) were 105 µM and above 100 µM, respectively. Consider `NCCCc1ccccc1-c1cccc(F)c1` [Compound 124], for which the IC50 in experiment [1] (setting [3]) came out at 14.3 µM; in experiment [2] (setting [4]), 3.5 µM.

Regarding `COc1cccc(/C(=C\CN)c2cccc(F)c2)c1` [Compound 141], the IC50 amounted to 8.97 µM in experiment [1] (setting [3]) and 4.26 µM in experiment [2] (setting [4]). For `CNCC=C(c1cccc(F)c1)c1cccc(F)c1` [Compound 106], the IC50 in experiment [1] (setting [3]) came out at 1.31 µM; in experiment [2] (setting [4]), 0.767 µM.

On to `COc1cccc(C(CCN)c2cccc(Cl)c2)c1` (stereo not drawn) [Compound 136], for which the IC50 stood at 0.706 µM in experiment [1] (setting [3]) and 0.139 µM in experiment [2] (setting [4]).

As for `NCCC(c1ccccc1)c1cccc(F)c1` (stereo not drawn) [Compound 32, 3-(3-fluorophenyl)-3-phenyl-1-propylamine], the IC50 in experiment [1] (setting [3]) stood at 0.799 µM; in experiment [2] (setting [4]), 0.284 µM. For `CCC(NCCC(c1cccc(F)c1)c1cccc(F)c1)c1ccccc1` (stereo not drawn) [Compound 94], in that order: 22.6 µM and 0.248 µM. `CNCCC(c1ccccc1)c1cccc(F)c1` (stereo not drawn) [Compound 108, N-methyl-3-(3-fluorophenyl)-3-phenyl-1-propylamine]: the figures for the IC50 in experiment [1] (setting [3]) and in experiment [2] (setting [4]) were 0.942 µM and 1.06 µM, respectively. For `COc1ccccc1OC(CCN)c1cccc(F)c1` (stereo not drawn) [Compound 121], in that order: 0.67 µM and 0.656 µM. Regarding `CCC(CCN)c1cccc(F)c1` (stereo not drawn) [Compound 35], the IC50 in experiment [1] (setting [3]) amounted to 25.1 µM; in experiment [2] (setting [4]) it was 6.2 µM. Consider `CNCCC=C1c2ccccc2CCc2ccccc21` [Nortriptyline, reference compound], for which the half-maximal inhibitory concentration (IC50) is 5.67 µM in experiment [1] and 3.7 µM in experiment [2] (read-out: IC50 (μM) vs. NMDA).

Regarding `CC(C)(CN)C(c1cccc(F)c1)c1cccc(F)c1` [Compound 41, 3,3-bis(3-fluorophenyl)-2,2-dimethyl-1-propylamine], the IC50 was determined as 14 µM in experiment [1] (setting [3]) and 0.724 µM in experiment [2] (setting [4]).

In the case of `Cc1ccccc1OC(CCN)c1ccccc1` (stereo not drawn) [Compound 177], the IC50 in experiment [1] (setting [3]) came out at 0.754 µM.

`CNCCC(Oc1cccc(F)c1)c1cccc(F)c1` (stereo not drawn) [Compound 145]: the IC50 was 0.626 µM in experiment [1] (setting [3]) and 0.098 µM in experiment [2] (setting [4]). Regarding `CCC(NCCC(c1ccccc1)c1ccccc1)c1ccccc1OC` (racemic) [Compound 167, (R,S)-N-1-(2-methoxyphenylpropyl)-3,3-diphenylpropylamine], the values for the IC50 in experiment [1] (setting [3]) and in experiment [2] (setting [4]) were 14.5 µM and 0.08 µM, respectively.

In the case of `NCC=C(c1cccc(F)c1)c1cccc(F)c1` [Compound 139, 3,3-bis(3-fluorophenyl)-prop-2-ene-1-amine], the IC50 is 5.6 µM in experiment [1] (setting [3]); 1.97 µM and 1.4 µM in experiment [2] (setting [4]). For the molecule `CC(N)CC(c1cccc(Cl)c1)c1cccc(Cl)c1` (stereo not drawn) [Compound 43], the IC50 in experiment [1] (setting [3]) amounted to 7.5 µM; in experiment [2] (setting [4]), 0.232 µM. Regarding `NCCC1c2cc(F)ccc2CCc2ccc(F)cc21` [Compound 195, 3,7-Difluoro-10,11-dihydro-5-(2-aminoethyl)-5H-dibenzo[a,d]cycloheptene hydrochloride], the IC50 in experiment [1] (setting [3]) was found to be 0.029 µM. Consider `COc1ccccc1CC(=O)NC(CC(C)C)C(=O)NCCCCCNCCCNCCCNC(=O)C(N)CCCNC(=N)N` (stereo not drawn) [Compound 7], for which the IC50 in experiment [1] (setting [3]) was determined as 129 µM; in experiment [2] (setting [4]), 0.163 µM.

On to `CN(CCC(c1cccc(F)c1)c1cccc(F)c1)Cc1ccccc1` [Compound 105], for which the results for the concentration for half-maximal inhibition (IC50) in experiment [1] (setting [3]) and in experiment [2] (setting [4]) were above 3 µM and 1.03 µM, respectively. Turning to `COc1ccccc1CC(=O)NCCCOCCCCOCCCN` [Compound 18], the results for the IC50 in experiment [1] (setting [3]) and in experiment [2] (setting [4]) were 34 µM and 5.1 µM, respectively. For `Cc1cccc(C(CCN)c2cccc(F)c2)c1` (stereo not drawn) [Compound 28, 3-(3-fluorophenyl)-3-(3-methylphenyl)-1-propylamine], in that order: 2.3 µM and 0.38 µM. In the case of `CC(C)C(CCN)c1cccc(F)c1` (stereo not drawn) [Compound 37], the IC50 was determined as 11.1 µM in experiment [1] (setting [3]) and 0.944 µM in experiment [2] (setting [4]). As for `NCC[C@H](c1cccc(F)c1)c1ccc(O)c(F)c1` (racemic) [Compound 175, (R,S)-3-(3-Fluoro-4-hydroxy)-3-(3-fluorophenyl)propylamine maleate], the IC50 in experiment [1] (setting [3]) was 5.1 µM. `CC(NCCC(c1cccc(F)c1)c1cccc(F)c1)c1ccccc1` (stereo not drawn) [Compound 93]: the results for the IC50 in experiment [1] (setting [3]) and in experiment [2] (setting [4]) were 26.9 µM and 0.486 µM, respectively. `CCC(NCCC(c1ccccc1)c1ccccc1)c1ccc(C)cc1` (stereo not drawn) [Compound 169]: the IC50 in experiment [1] (setting [3]) is 26.7 µM; in experiment [2] (setting [4]) it was 0.298 µM. As to `NCCCOCCCCOCCCNC(=O)Cc1ccc2ccccc2c1` [Compound 17], the IC50 in experiment [1] (setting [3]) amounted to 36.3 µM; in experiment [2] (setting [4]), 9.6 µM. For the molecule `NCC[C@H](Oc1cccc(F)c1)c1ccccc1` [Compound 186], the IC50 in experiment [1] (setting [3]) was found to be 0.123 µM; in experiment [2] (setting [4]), 0.155 µM. On to `Cc1ccccc1C(CCN)c1ccccc1C` [Compound 65, 3,3-bis(2-methylphenyl)-1-propylamine], for which the IC50 turned out to be 2 µM in experiment [1] (setting [3]) and 0.167 µM in experiment [2] (setting [4]). Turning to `Fc1cccc(C(c2cccc(F)c2)C2CCNCC2)c1` [Compound 112], the IC50 in experiment [1] (setting [3]) is 21 µM; in experiment [2] (setting [4]), 28 µM and 28.9 µM. Regarding `CN(C)CCC=C1c2ccccc2CCc2ccccc21` [Amitriptyline, reference compound], in experiment [1] (setting [3]), the IC50 was found to be 14.2 µM. As to `NCCCC(c1ccc(F)cc1)c1ccc(F)cc1` [Compound 104], the concentration for half-maximal inhibition (IC50) in experiment [1] (setting [3]) was above 10 µM; in experiment [2] (setting [4]), 7.98 µM.

For `c1ccc(C(CCNC(c2ccccc2)C2CC2)c2ccccc2)cc1` (stereo not drawn) [Compound 171], the IC50 was determined as 39.6 µM in experiment [1] (setting [3]) and 0.31 µM in experiment [2] (setting [4]). On to `NCC(c1cccc(F)c1)c1cccc(F)c1` [Compound 98, 2,2-bis(3-fluorophenyl)-1-ethylamine], for which the figures for the IC50 in experiment [1] (setting [3]) and in experiment [2] (setting [4]) were 52.5 µM and 7.9 µM, respectively. Consider `CN[C@@H](C)CC(c1cccc(F)c1)c1cccc(F)c1` [Compound 69], for which the figures for the IC50 in experiment [1] (setting [3]) and in experiment [2] (setting [4]) were 0.366 µM and 0.224 µM, respectively. The corresponding values for `CCCC(NCCC(c1ccccc1)c1ccccc1)c1ccccc1` (stereo not drawn) [Compound 157] are 23.2 µM and 0.142 µM.

Take `NCCC(c1ccsc1)c1cccc(F)c1` (stereo not drawn) [Compound 90]: the IC50 was determined as 1.4 µM in experiment [1] (setting [3]) and 0.27 µM in experiment [2] (setting [4]). With `NCCC(Oc1ccccc1)c1ccccc1` (stereo not drawn) [Compound 146], the values for the IC50 in experiment [1] (setting [3]) and in experiment [2] (setting [4]) were 0.372 µM and 0.829 µM, respectively. For `NCCC1c2ccccc2COc2ccccc21` (stereo not drawn) [Compound 187, 11-(2-Aminoethyl)-11H-10,11-dihydrodibenzo[b,c]oxepine hydrochloride], the IC50 in experiment [1] (rat cortical/hippocampal washed membranes, hydrochloride) is 2.01 µM and 2.06 µM; in experiment [2] (setting [4]), 1.78 µM. For the molecule `Fc1cccc(C(c2cccc(F)c2)C2CCNC2)c1` (stereo not drawn) [Compound 102], the IC50 in experiment [1] (setting [3]) turned out to be 3.3 µM; in experiment [2] (setting [4]), 1.01 µM.

As to `NCC=C(c1ccccc1)c1cccc(F)c1` (racemic) [Compound 107, 3-(3-fluorophenyl)-3-phenyl-prop-2-ene-1-amine], the IC50 in experiment [1] (setting [3]) came to 3.83 µM; in experiment [2] (setting [4]) it was 2.67 µM. In the case of `CN(C)CCC=C1c2ccccc2C=Cc2ccccc21` [Cyclobenzaprine, reference compound], the IC50 in experiment [1] (setting [3]) turned out to be 14.5 µM. In the case of `NCCC1c2ccccc2CCc2c(F)cccc21` (stereo not drawn) [Compound 196], in experiment [1] (setting [3]), the IC50 is 2.24 µM.

In the case of `CNCCCN1c2ccccc2CCc2ccccc21` [desipramine, reference compound], the IC50 in experiment [1] (setting [3]) was determined as 3.26 µM. Still for that read-out and setting: as for `CN(C)CCCN1c2ccccc2CCc2ccccc21` [Imipramine, reference compound], the figure is 6.75 µM; as for `CNCCC(c1cccc(F)c1)c1ccc(O)c(F)c1` (racemic) [Compound 176, (R,S)-N-Methyl-3-(3-fluoro-4-hydroxy)-3-(3-fluorophenyl)propyl amine hydrochloride], 10 µM; as for `NCCC1c2cc(F)ccc2CCc2c(F)cccc21` (stereo not drawn) [Compound 194], 0.371 µM. On to `NCCC(c1cccc(C(F)(F)F)c1)c1cccc(C(F)(F)F)c1` [Compound 78, 3,3-bis[3-(trifluoromethyl)phenyl]-1-propylamine], for which, in experiment [2] (read-out: IC50 (μM) vs. NMDA; NMDA/glycine-induced increases in intracellular calcium, cultured rat cerebellar granule cells), the IC50 stood at 10.2 µM. As to `CN(C)CCC(Oc1ccc2c(c1)CCCC2)c1ccc(C#N)cc1` (stereo not drawn) [Novo-Nordisk compound^d, reference compound], the IC50 in experiment [2] (setting [4]) was determined as 28.8 µM. On the same count and under the same terms, as for `CN(C)CCC(c1ccccc1)c1ccccn1` (stereo not drawn) [pheniramine, reference compound], the figure is 22 µM.

Turning to `COc1cccc(/C(=C\CN)c2cccc(Cl)c2)c1` [Compound 143], in experiment [2] (setting [4]), the IC50 was determined as 2.82 µM. For `CNCCC(c1cccc(F)c1)c1ccc(OC)c(F)c1` (racemic) [Compound 174, (R,S)-N-Methyl-3-(3-fluoro-4-methoxy)-3-(3-fluorophenyl)propyl amine maleate], the IC50 in experiment [1] (setting [3]) was 57 µM. On to `CC(C)NCCC(c1ccccc1)c1ccccc1` [Compound 72, N-isopropyl-3,3-diphenylpropylamine], for which, in experiment [2] (setting [4]), the IC50 stood at 7.4 µM. For `CN(C)CCC(c1ccc(Cl)cc1)c1ccccn1` (stereo not drawn) [chlorpheniramine, reference compound], the 50% inhibitory concentration (IC50) in experiment [2] (setting [4]) is above 100 µM. Take `COc1ccccc1OC(CCN)c1ccccc1` (stereo not drawn) [Compound 178]: the IC50 in experiment [1] (setting [3]) turned out to be 1.25 µM.
